Laboratory results reported in patent publication US6177475A, “Methods of using integrin modulators for treatment of inflammation” (priority 1997, dated 2001).

How the values were obtained:
[1] = system: MT-2 cells / K562/VCAM-1 cells (HTLV-I); test: Syncytium formation of HTLV-I-infected MT-2 cells with K562/VCAM-1 cells; type: cell-based; conditions: 3.4 micromoles per liter; higher concentrations not tested
Text: MT-2 cells harbor the complete genome of human T cell lymphotropic virus type 1 (HTLV-I), and they transmit the virus to susceptible uninfected cells in cocultures. The transmission manifests itself as fusion of MT-2 cells with the uninfected cells, followed by syncytium formation. K562 cells transfected with VCAM-1, a ligand of the integrin VIA-4, were used as a fusion partner for MT-2 cells. MT-2 and K562/VCAM-1 cells were washed and resuspended in complete RPMI medium at a density of 2×10^6 /ml. MT2 cells were seeded into flat-bottom 96-well microtiter plates (100 microliters per well). Serial dilutions of Ajoene or of the disintegrin kistrin (final concentration) were introduced into the wells, and the plate was incubated for 30 min prior to addition of 100 microliters of K562/VCAM-1 cells. The plates were then incubated for 4 h before scoring syncytium formation.

[2] = system: lymphocyte infiltration into the pancreata; test: Spontaneous development of autoimmune diabetes in NOD mice (lymphocyte infiltration of pancreata); type: in vivo, Nonobese diabetic (NOD) mice; conditions: 0.3 mg/kg i.p. every other day, 9 weeks
Text: (§1) Nonobese diabetic (NOD) mice are characterized by spontaneous development of insulitis (similar to human insulin-dependent diabetes) and sialoadenitis (similar to Sjogren's disease). The development of autoirmune inflammation in these animals involves several integrin receptors, including VLA-4, CR3, and LFA-1 (CD11a/CD18). Lymphocyte infiltration into the pancreata is mediated primarily by VIA-4, whereas the predominant mechanism of lymphocyte recruitment into the salivary glands involves LFA-1.
(§2) NOD mice (age, 3 to 4 weeks old; average body weight, 10 g) were divided into three groups. Experimental animals received intraperitoneal injections of disintegrins (0.3 mg/kg per animal every other day) for 9 weeks. Control mice were administered with the vehicle.
(§3) The mice were sacrificed and subjected to autopsy. The pancreata and salivary glands were removed and frozen (-70° C.). Thin sections (5 micrometer thick) of these organs were fixed in acetone, stained with hematoxylin and eosin, and evaluated microscopically for lymphocyte infiltration (Tables 6 and 7).

[3] = system: lymphocyte infiltration into the salivary glands; test: Spontaneous development of autoimmune sialoadenitis in NOD mice (lymphocyte infiltration of salivary glands); type: in vivo, Nonobese diabetic (NOD) mice; conditions: 0.3 mg/kg i.p. every other day, 9 weeks
Text: as §1, §2, §3

[4] = pancreas, (+) 1-3 infiltrated islets
[5] = pancreas, (-) no infiltrating lymphocytes
[6] = (+) 1-3 small foci involving only one duct
[7] = (+++) 2 or more foci involving several ducts
[8] = (-) no infiltrating lymphocytes

Substance: Kistrin
- inhibition of syncytium formation [1]: ~ 40%
- development of large infiltrates in pancreatic islets [2]: completely prevented the development of large infiltrates
- proportion of animals with mild infiltration of pancreatic islets [2]: increased the proportion of animals with mild infiltration of pancreatic islets
- Number of mice with infiltration score (+) [2, 4]: 2 mice
- Percentage of mice with infiltration score (+) [2, 4]: 40%
- Number of mice with infiltration score (++) ([2]; pancreas, (++) 4 islets with moderate infiltration and/or 1-2 islets with large infiltrates): 0 mice
- Number of mice with infiltration score (+++) ([2]; pancreas, (+++) 3 or more large infiltrates): 0 mice
- Number of mice with infiltration score (-) [2, 5]: 3 mice
- Percentage of mice with infiltration score (-) [2, 5]: 60%
- Number of mice with infiltration score (+) [3, 6]: 2 mice
- Percentage of mice with infiltration score (+) [3, 6]: 40.0%
- Number of mice with infiltration score (++) ([3]; (++) small foci and/or 1 large focus involving several ducts): 0 mice
- Number of mice with infiltration score (+++) [3, 7]: 1 mice
- Percentage of mice with infiltration score (+++) [3, 7]: 20.0%
- Number of mice with infiltration score (-) [3, 8]: 2 mice
- Percentage of mice with infiltration score (-) [3, 8]: 40.0%
